# Measurements taken from patent US20250318528A1, “HERBICIDE COMPOSITION AND WEED CONTROLLING METHOD” (SUMITOMO CHEMICAL COMPANY, LIMITED, priority 2022, published 2025).
# Where a name gives a salt, the structure may show the parent alone.
# What was measured:
# Type in all cases: in vivo
# [1] = test system: common barnyardgrass (Echinochloa crus-galli); assay: Herbicidal effect, foliar spray pot test (Example 349); settings: sprayed 21 days after seeding, evaluated after 4 days, rating 0 to 100
# Experimental: (§1) The formulation (1-41) was produced in the same manner as in Example 348.
# (§2) After filling a plastic pot with soil, common barnyardgrass (Echinochloa crus-galli) and Italian ryegrass (Lolium multiflorum) were seeded therein and grown in a greenhouse. The weeds were then cultivated in the greenhouse, and 21 days after seeding, a spray liquid containing the formulation (1-41) and/or EnlistOne (670 g/L of 2,4-D choline salt, manufactured by Dow AgroSciences) prepared so that the application rate of the compound (I-41) might be 20 g/ha and the application rate of EnlistOne might be 798 g/ha as an equivalent of 2,4-D choline salt (1.754 L/ha (24 fluid ounce/acre) as […]) was uniformly sprayed above the pot using a spraying machine so that the spray liquid amount might be 218 L/ha. Thereafter, the weeds were grown in the greenhouse for 4 days and the herbicidal effect was evaluated.
# (§3) From the results of the herbicidal effect (value of A or B) for the single use of each of the compounds, the expected value of the herbicidal effect when the compounds were combined was determined according to the Colby's equation: […]
# [2] = test system: Italian ryegrass (Lolium multiflorum); assay: as above; settings: sprayed 21 days after seeding, evaluated after 4 days, rating 0 to 100
# Experimental: as §1, §2, §3
# [3] = test system: common barnyardgrass (Echinochloa crus-galli); assay: Herbicidal effect, foliar spray pot test (Example 346); settings: sprayed 17 days after seeding, evaluated after 4 days, rating 0 to 100
# Experimental: (§4) The compound (I-15) (55 mg), 76.5 mg of Emulsogen TS290 (polyoxyethylene tristyryl phenyl ether, manufactured by Clariant) and 76.5 mg of Phenylsulfonat CAL (mixture of 70% calcium dodecylbenzenesulfonate and 30% iso-butanol, manufactured by Clariant) were dissolved in Solvesso 200ND (aromatic hydrocarbon, manufactured by Exxon Mobile Corporation) to make 1 ml in total, thus producing an emulsifiable concentrate (hereinafter referred to as formulation (I-15)).
# (§5) After filling a plastic pot with soil, common barnyardgrass (Echinochloa crus-galli) and Italian ryegrass (Lolium multiflorum) were seeded therein and grown in a greenhouse. The weeds were then cultivated in the greenhouse, and 17 days after seeding, a spray liquid containing the formulation (1-15) and/or Roundup PowerMax (660 g/L of glyphosate potassium salt, manufactured by Monsanto Company) prepared so that the application rate of the compound (I-15) might be 20 g/ha and the application rate of Roundup PowerMax might be 1262 g/ha as an equivalent of glyphosate acid (2.338 L/ha (32 fluid ounce/acre) as Roundup PowerMax) was uniformly sprayed above the pot using a spraying machine so that the spray liquid amount may be 218 L/ha. Thereafter, the weeds were grown in the greenhouse for 4 days and the herbicidal effect was evaluated.
# as §3
# [4] = test system: Italian ryegrass (Lolium multiflorum); assay: as above; settings: sprayed 17 days after seeding, evaluated after 4 days, rating 0 to 100
# Experimental: as §4, §5, §3
# [5] = test system: common barnyardgrass (Echinochloa crus-galli); assay: Herbicidal effect, foliar spray pot test (Example 347); settings: sprayed 17 days after seeding, evaluated after 4 days, rating 0 to 100
# Experimental: (§6) The formulation (I-15) was produced in the same manner as in Example 346.
# (§7) After filling a plastic pot with soil, common barnyardgrass (Echinochloa crus-galli) and Italian ryegrass (Lolium multiflorum) were seeded therein and grown in a greenhouse. The weeds were then cultivated in the greenhouse, and 17 days after seeding, a spray liquid containing the formulation (1-15) and/or Xtendimax (350 g/L of dicamba diglycolamine salt, manufactured by Monsanto Company) prepared so that the application rate of the compound (I-15) might be 20 g/ha and the application rate of Xtendimax might be 560 g/ha as an equivalent of dicamba acid (1.608 L/ha (22.0 fluid ounce/acre) as Xtendimax) was uniformly sprayed above the pot using a spraying machine so that the spray liquid amount might be 218 L/ha. Thereafter, the weeds were grown in the greenhouse for 4 days and the herbicidal effect was evaluated.
# as §3
# [6] = test system: Italian ryegrass (Lolium multiflorum); assay: as above; settings: sprayed 17 days after seeding, evaluated after 4 days, rating 0 to 100
# Experimental: as §6, §7, §3
# [7] = test system: weeds; assay: Examples 1 to 23 with compound (I-15) replaced by another compound (I) (Examples 24 to 115); settings: as Examples 1 to 23 with compound (I-15) replaced; used with pyroxasulfone, saflufenacil, flumioxazin and/or glyphosate-potassium salt; crop soybean, corn or cotton
# [8] = test system: common barnyardgrass (Echinochloa crus-galli); assay: Herbicidal effect, foliar spray pot test (Example 348); settings: sprayed 17 days after seeding, evaluated after 4 days, rating 0 to 100
# Experimental: as §4, with “(I-41)” for “(I-15)”, “(I-41)).” for “(I-15)).”
# (§8) After filling a plastic pot with soil, common barnyardgrass (Echinochloa crus-galli) and Italian ryegrass (Lolium multiflorum) were seeded therein and grown in a greenhouse. The weeds were then cultivated in the greenhouse, and 17 days after seeding, a spray liquid containing the formulation (1-41) and/or Liberty (280 g/L of glufosinate ammonium salt, manufactured by Bayer) prepared so that the application rate of the compound (I-41) might be 20 g/ha and the application rate of Liberty might be 594 g/ha as glufosinate ammonium salt (2.12 L/ha (29.0 fluid ounce/acre) as Liberty) was uniformly sprayed above the pot using a spraying machine so that the spray liquid amount might be 218 L/ha. Thereafter, the weeds were grown in the greenhouse for 4 days and the herbicidal effect was evaluated.
# as §3
# [9] = test system: Italian ryegrass (Lolium multiflorum); assay: as above; settings: sprayed 17 days after seeding, evaluated after 4 days, rating 0 to 100
# Experimental: as §4, with “(I-41)” for “(I-15)”, “(I-41)).” for “(I-15)).”
# as §8, §3
# [10] = 2,4-D choline salt 798 g/ha (EnlistOne) alone
# [11] = compound (I-15) 20 g/ha alone, 218 L/ha
# [12] = compound (I-41) 20 g/ha alone, 218 L/ha
# [13] = dicamba diglycolamine salt 560 g/ha (dicamba acid equivalent, Xtendimax) alone
# [14] = glufosinate ammonium salt 594 g/ha (Liberty) alone
# [15] = glyphosate potassium salt 1,262 g/ha (glyphosate acid equivalent, Roundup PowerMax) alone
smiles,measurement,setting,value
"C[N+](C)(C)CCO.O=C([O-])COc1ccc(Cl)cc1Cl [2,4-D choline salt, reference compound]",Herbicidal effect Observed value,[1]; [10],10
same,Herbicidal effect Observed value,[2]; [10],5
COC(=O)C(C)OC(=O)C1(Oc2cc(-n3c(=O)cc(C(F)(F)F)n(C)c3=O)c(F)cc2Cl)CC1 (centres unmarked) [Compound (I-15)],Herbicidal effect Observed value,[3]; [11],70
same,Herbicidal effect Observed value,[4]; [11],20
same,Herbicidal effect Observed value,[5]; [11],70
same,Herbicidal effect Observed value,[6]; [11],20
CCOC(=O)C(C)OC(=O)C1(Oc2cc(-n3c(=O)cc(C(F)(F)F)n(C)c3=O)c(F)cc2Cl)CC1 (centres unmarked) [Compound (I-29)],weed control effect compared to the single use of each of the compounds,[7],synergistic weed control effect
CCOC(=O)C(C)(C)OC(=O)C1(Oc2cc(-n3c(=O)cc(C(F)(F)F)n(C)c3=O)c(F)cc2Cl)CC1 [Compound (I-30)],weed control effect compared to the single use of each of the compounds,[7],synergistic weed control effect
CCOC(=O)C(CC)OC(=O)C1(Oc2cc(-n3c(=O)cc(C(F)(F)F)n(C)c3=O)c(F)cc2Cl)CC1 (centres unmarked) [Compound (I-33)],weed control effect compared to the single use of each of the compounds,[7],synergistic weed control effect
CCOC(=O)C1(OC(=O)C2(Oc3cc(-n4c(=O)cc(C(F)(F)F)n(C)c4=O)c(F)cc3Cl)CC2)CC1 [Compound (I-41)],weed control effect compared to the single use of each of the compounds,[7],synergistic weed control effect
same,Herbicidal effect Observed value,[1]; [12],70
same,Herbicidal effect Observed value,[2]; [12],20
same,Herbicidal effect Observed value,[8]; [12],50
same,Herbicidal effect Observed value,[9]; [12],20
"COc1c(Cl)ccc(Cl)c1C(=O)O.NCCOCCO [Dicamba diglycolamine salt, dicamba diglycolamine salt, reference compound]",Herbicidal effect Observed value,[5]; [13],5
same,Herbicidal effect Observed value,[6]; [13],0
"CP(=O)(O)CCC(N)C(=O)O (centres unmarked) [Glufosinate ammonium salt, glufosinate ammonium salt, reference compound]",Herbicidal effect Observed value,[8]; [14],70
same,Herbicidal effect Observed value,[9]; [14],40
"O=C(O)CNCP(=O)(O)O [Glyphosate potassium salt, reference compound]",Herbicidal effect Observed value,[3]; [15],30
same,Herbicidal effect Observed value,[4]; [15],10
